Measurements taken from patent US7601863B2, “Use of PPAR agonists for the treatment of congestive heart failure” (sanofi-aventis Deutschland GmbH, priority 2004, dated 2009).

How the values were obtained:
[1] = system: rats with chronic ligation of the left coronary artery (myocardial infarction, heart failure); assay: Dose response in chronic myocardial infarction: lung weight and isolated working heart after 8 weeks of treatment; assay type: in vivo, Male Sprague Dawley rats; conditions: for Lung weight / Cardiac output / LV dP/dtmax / LV dP/dtmin: MI, 8 weeks, mean ± sem; for Cardiac output / LV dP/dtmax / LV dP/dtmin: working heart, afterload 80 mmHg
Method: At the end of the treatment period, cardiac function was measured using an isolated working heart preparation (modified Langendorff apparatus, cf. Linz et al., J. Ren. Angiotensin Aldosterone Syst., 2003): The hearts were perfused according to Langendorff's method with an oxygenated (95% O2, 5% CO2) noncirculating Krebs-Henseleit solution of the following compositions (mmol/L): NaCl, 118; KCl, 4.7; CaCl2, 2.5; MgSO4, 1.6; NaHCO3, 24.9; KH2PO4, 1.2; glucose, 5.5; Na-pyruvate, 2.0. The left atrium was cannulated by an incision of the left auricle. After a 15-minute equilibration period at a fixed perfusion pressure of 60 mmHg, the heart was switched into the working mode at a fixed filling pressure of 11 mm Hg. Then, afterload pressure was varied stepwise every two minutes from 40 to 140 mmHg. Data in the table are representative and given for a constant afterload pressure of 80 mmHg. Flow and pressure signals were sampled at 500 Hz, averaged every 2 seconds. Cardiac output measures the overall capacity of the heart to pump the blood through the body. LV dP/dtmax is an index of myocardial contractility, i.e. the force generating ability of the heart; LV dP/dtmin is an index of the ability of the myocardium to relax. In addition, lung weight was measured as an index of pulmonary congestion, an indirect sign of CHF.
Male Sprague Dawley rats were pre-treated with a chronic ligation of the left coronary artery, in order to produce a myocardial infarction (MI) and subsequent development of heart failure: Treatment with a compound of the formula (I) (pressed in chow, resulting in different daily doses) was initiated on the day after myocardial infarction. After 8 weeks of treatment, the animals were killed, the lung was weighed, and the function of the isolated heart was analyzed ex vivo in the working heart mode, in the same manner as described for Example 1 (vide supra). This method allows to assess different aspects of the myocardial function. For comparison against the effect of an established therapeutic principle in the present experimental series, the dual ACE/NEP, or vasopeptidase, inhibitor (7-(2-Acetylsulfanyl-3-methyl-butyrylamino)-6-oxo-1,2,3,4,6,7,8,12b-octahydro-benzo[c]pyrido[1,2-a]azepine-4-carboxylic acid; international patent application no. WO 02/083671) that is known for being active in the treatment of CHF was applied in an additional group.

[2] = system: rat model of chronic coronary artery ligation (myocardial infarction, congestive heart failure); assay: Proof of concept study: chronic heart failure after permanent left coronary artery occlusion; lung weight and isolated working heart after eight weeks of treatment; assay type: in vivo, Male Wistar rats; conditions: for Lung weight / Cardiac output / LV dP/dtmax / LV dP/dtmin: MI, eight weeks, mean ± sem; for Cardiac output / LV dP/dtmax / LV dP/dtmin: working heart, afterload 80 mmHg
Text: In order to test the effect of specific activation of either PPARγ (rosiglitazone) or PPARα (compound of formula (I), (II) and (III)) on the improvement of CHF, a rat model of chronic coronary artery ligation was used because myocardial infarction is the most common cause for CHF in the industrialized countries.
Male Wistar rats were housed three per cage under standardized conditions of temperature, humidity, and light. They had free access to a standardized diet (sodium content 0.2%, Altromin, Lage, Germany) and tap drinking water. Chronic heart failure was induced by a permanent occlusion of the left coronary artery approximately 2 mm distal to its origin from the aorta resulting in a large infarction of the free left ventricular wall. Chronic treatment was initiated on the day after production of the myocardial infarction and continued for eight weeks.
The left atrium was cannulated by an incision of the left auricle. After a 15-minute equilibration period at a fixed perfusion pressure of 60 mmHg, the heart was switched into the working mode at a fixed filling pressure of 11 mm Hg. Then, afterload pressure was varied stepwise every two minutes from 40 to 140 mmHg. […] Flow and pressure signals were sampled at 500 Hz, averaged every 2 seconds. Cardiac output measures the overall capacity of the heart to pump the blood through the body. LV dP/dtmax is an index of myocardial contractility, i.e. the force generating ability of the heart; LV dP/dtmin is an index of the ability of the myocardium to relax. In addition, lung weight was measured as an index of pulmonary congestion, an indirect sign of CHF.
Treatment with a compound of the formula (I) (pressed in chow, resulting in a dose of 20 mg/kg/d) was initiated on the day after myocardial infarction. The pure PPARγ agonist rosiglitazone was used for comparison in an additional group (3 mg/kg/day in chow).

[3] = compound (I) 20 mg/kg/d in chow
[4] = rosiglitazone 3 mg/kg/d in chow

Compound: CC(=O)SC(C(=O)NC1Cc2ccccc2C2CCCC(C(=O)O)N2C1=O)C(C)C (centres unmarked) [VPI, 7-(2-Acetylsulfanyl-3-methyl-butyrylamino)-6-oxo-1,2,3,4,6,7,8,12b-octahydro-benzo[c]pyrido[1,2-a]azepine-4-carboxylic acid, reference compound]
- Lung weight ([1]; 30 mg/kg/d): 0.56 ± 0.07 g/100 g BW
- Cardiac output ([1]; 30 mg/kg/d): 27.2 ± 3.5 mL/min
- LV dP/dtmax ([1]; 30 mg/kg/d): 3868 ± 172 Mm Hg/s
- LV dP/dtmin ([1]; 30 mg/kg/d): 2379 ± 120 mm Hg/s

Compound: Cc1cccc(COCCCOCc2coc(-c3ccccc3)n2)c1C(=O)O [compound (I), 2-methyl-6-[3-(2-phenyloxazol-4-ylmethoxy)propoxymethyl] benzoic acid]
- Effect of chronic treatment on heart failure (in words) ([1]; MI rats, 8 weeks in chow, different daily doses): improves different aspects of heart failure
- Lung weight ([1]; 1 mg/kg/d in chow): 0.80 ± 0.08 g/100 g BW
- Cardiac output ([1]; 1 mg/kg/d in chow): 12.5 ± 3.3 mL/min
- LV dP/dtmax ([1]; 1 mg/kg/d in chow): 3280 ± 250 Mm Hg/s
- LV dP/dtmin ([1]; 1 mg/kg/d in chow): 1886 ± 137 mm Hg/s
- Lung weight ([1]; 3 mg/kg/d in chow): 0.54 ± 0.08 g/100 g BW
- Cardiac output ([1]; 3 mg/kg/d in chow): 21.5 ± 5.4 mL/min
- LV dP/dtmax ([1]; 3 mg/kg/d in chow): 3665 ± 166 Mm Hg/s
- LV dP/dtmin ([1]; 3 mg/kg/d in chow): 2353 ± 77 mm Hg/s
- Lung weight ([1]; 10 mg/kg/d in chow): 0.54 ± 0.09 g/100 g BW
- Cardiac output ([1]; 10 mg/kg/d in chow): 21.0 ± 4.0 mL/min
- LV dP/dtmax ([1]; 10 mg/kg/d in chow): 4043 ± 256 Mm Hg/s
- LV dP/dtmin ([1]; 10 mg/kg/d in chow): 2339 ± 111 mm Hg/s
- Effect of chronic treatment on heart failure (in words) ([2]; MI rats, eight weeks in chow, compound (I) 20 mg/kg/d, rosiglitazone 3 mg/kg/day): improves different aspects of heart failure
- Lung weight [2, 3]: 1.62 ± 0.06 Gram
- Cardiac output [2, 3]: 25.8 ± 4.3 mL/min
- LV dP/dtmax [2, 3]: 4614 ± 253 mmHg/s
- LV dP/dtmin [2, 3]: 2502 ± 77 mmHg/s

Compound: CN(CCOc1ccc(CC2SC(=O)NC2=O)cc1)c1ccccn1 (centres unmarked) [Rosiglitazone, rosiglitazone, reference compound]
- Lung weight [2, 4]: 3.67 ± 0.38 Gram
- Cardiac output [2, 4]: 10.2 ± 3.8 mL/min
- LV dP/dtmax [2, 4]: 3491 ± 147 mmHg/s
- LV dP/dtmin [2, 4]: 2081 ± 65 mmHg/s
